According to patent US20240300977A1, “INHIBITORS OF DNA-DEPENDENT PROTEIN KINASE AND COMPOSITIONS AND USES THEREOF” (Intellia Therapeutics, Inc., priority 2021, published 2024):

Tests used:
NK cells [1] = test: Percent editing at AAVS1 in NK cells by NGS; format: cell-based, human
Experimental: Genomic DNA was extracted using QuickExtract™ DNA Extraction Solution (Lucigen, Cat. QE09050) according to manufacturer's protocol.
To quantitatively determine the efficiency of editing at the target location in the genome, next generation sequencing was utilized to identify the presence of insertions and deletions introduced by gene editing. […] Primer sequence design was done as is standard in the field.
Additional PCR was performed according to the manufacturer's protocols (Illumina) to add chemistry for sequencing. The amplicons were sequenced on an Illumina MiSeq instrument. The reads were aligned to the human (e.g., hg38) reference genome after eliminating those having low quality scores. The resulting files containing the reads were mapped to the reference genome (BAM files), where reads that overlapped the target region of interest were selected and the number of wild-type reads versus the number of reads which contain an insertion or deletion (“indel”) was calculated.
The editing percentage (e.g., the “editing efficiency” or “percent editing”) is defined as the total number of sequence reads with insertions or deletions (“indels”) over the total number of sequence reads, including wild type.

TRBC = test: Off-target site validation, rhAmpSeq; details: gRNA G016239 targeting TRBC; of 92 off-target sites; with the named DNA-PKI or none
T cells [2] = test: Off-target structural variation by UnIT; format: cell-based, human; details: T cells from Example 12, day 8 post-editing; TRAC sgRNA G013006
Excerpt: On day 8 post-editing, T cells from Example 12 from the untreated, unedited, Compound 3 and Compound 4 guides samples were collected, spun down and the pellets were directly used as input material for gDNA isolation using “Zymo Quick DNA/RNA Mag Beads Kit” (Zymo Cat. R2131). The UnIT structural variant characterization assay was applied to these gDNA samples. High molecular weight genomic DNA is simultaneously fragmented and sequence-tagged (‘tagmented’) with the Tn5 transposase and an adapter with a partial Illumina P5 sequence and a 12 bp unique molecular identifier (UMI). Two sequential PCRs using a primer to P5 and hemi-nested gene specific primers (GSP) imparting the Illumina the P7 sequence to create two Illumina compatible NGS libraries per sample (Illumina, Ref 15033624). Sequencing across both directions of the CRISPR/Cas9 targeted cut site with the two libraries allows the inference and quantification of structural variants in DNA repair outcomes after genome editing. If the two fragments were aligned to different chromosomes, the SV was classified as an “inter-chromosomal translocation.” The magnitude of structural variation was shown in FIG. 9A and Table 18.

T cells [3] = test: SpyCas9 TRAC editing (indel) in T cells by NGS with or without Compound 4; format: cell-based, human; details: day 4 NGS
Experimental: Upon thaw, T cells were plated at a density of 1.0×10^6 cells/mL in T cell growth media (TCGM) composed of CTS OpTmizer T Cell Expansion SFM and T Cell Expansion Supplement (ThermoFisher Cat. A1048501), 5% human AB serum (GeminiBio, Cat. 100-512) 1× Penicillin-Streptomycin, 1× Glutamax, 10 mM HEPES, 200 U/mL recombinant human interleukin-2 (Peprotech, Cat. 200-02), 5 ng/ml recombinant human interleukin 7 (Peprotech, Cat. 200-07), and 5 ng/mL recombinant human interleukin 15 (Peprotech, Cat. 200-15). T cells were rested in this media for 24 hours, at which time they were activated with T Cell TransAct™, human reagent (Miltenyi, Cat. 130-111-160) added at a 1:100 ratio by volume.
48 hours post-activation, T cells were harvested, centrifuged at 500 g for 5 min, and resuspended at a concentration of 6.41×10^5 T cells/mL in T cell plating media (TCPM): a serum-free version of TCGM containing 400 U/mL recombinant human interleukin-2 (Peprotech, Cat. 200-02), 10 ng/mL recombinant human interleukin 7 (Peprotech, Cat. 200-07), and 10 ng/mL recombinant human interleukin 15 (Peprotech, Cat. 200-15). 50 μL of T cells in TCPM (3.2×10^4 T cells) were added per well to be treated in flat-bottom 96-well plates.
LNPs were generated as described in Example 1 at a ratio of 50/38.5/10/1.5 (Lipid A/cholesterol/DSPC/PEG2k-DMG).
Mix “A” was serially diluted 1:2 in TCTM, and mixed 1:1 by volume with mix “B”. 25 μL of the resulting solution was added to 3.2×10^4 T cells in 96-well plates.
Next, a repair template in the form of an adeno-associated virus (AAV) encoding the HD3 TCR (SEQ ID NO: 18 was diluted in TCTM to 3.84×10^11 genome copies/mL in the presence or absence of Compound 4 diluted to 2 μM. 25 μL of the resulting solution was added to T cells that were treated with LNPs in the prior step. To enable editing assessments by NGS without the interference of repair templates, an arm of this experiment received 25 μL of TCTM with or without Compound 4 diluted to 2 μM in the absence of AAVs.
Following the addition of LNPs, repair templates and Compound 4, T cells were incubated at 37° C. for 48 hours, at which time T cells were centrifuged at 500 g for 5 min, resuspended in 200 μL of TCGM and returned to the incubator.

T cells [4] = test: TRAC LNP editing and GFP insertion in activated T cells with DNA-PK inhibitors, flow cytometry; details: GFP positive of the CD3 negative T cells, day 5 post-edit
NK cells [5] = test: GFP insertion at AAVS1 in NK cells, flow cytometry; format: cell-based, human; details: LNP + AAV, seven days
Experimental: NK cells were assessed for the impact of DNA protein kinase inhibitors (DNA-PKI) on indel and insertion rates. […] A subset of samples was also treated with AAV encoding a GFP coding sequence flanked by regions of homology to the AAVS1 edit site (SEQ ID NO: 16). NK cells were isolated from a commercially obtained leukopak using the EasySep Human NK Cell Isolation Kit ([…], Cat. No. 17955) according to the manufacturer's protocol. […] NK cells were plated at 50,000 cells per well in triplicate in OpTmizer supplemented as described above with DNA-PKI at concentrations indicated in Tables 10 and 11. […] For a subset of samples, AAV encoding GFP flanked by regions homologous to the AAVS1 edit site were added at a multiplicity of infection (MOI) of 600,000 genome copies following editing. At seven days post LNP composition treatment, cells were phenotyped by flow cytometry to measure GFP insertion rates. Briefly, NK cells were incubated with antibodies targeting CD3 (Biolegend, Cat. No. 317336) and CD56 (Biolegend, Cat. No. 318310). […] NK cells were gated on size, CD3/CD56 status, and GFP expression. High GFP-expressing cells were gated as targeted GFP […] locus and low GFP-expressing cells were gated as episomal retention.

## Cc1cc2ncnn2cc1Nc1ncc2c(n1)n(C1CCC3(CC1)CC3)c(=O)n2C [Compound 4, 7-methyl-2-((7-methyl-[1,2,4]triazolo[1,5-a]pyridin-6-yl)amino)-9-(spiro[2.5]octan-6-yl)-7,9-dihydro-8H-purin-8-one]
NK cells [1]; DNA-PKI 0.125 uM
  Mean percent editing at AAVS1: 96.77%
NK cells [1]; DNA-PKI 0.5 uM
  Mean percent editing at AAVS1: 97.67%
TRBC
  Sites Validated: 0
T cells [2]
  Unintended Structural Variance (Average): 1.46%
T cells [3]; sgRNA 0 μg/mL, Spy Cas9 + Compound 4
  Mean TRAC Editing %: 0.20%
T cells [3]; sgRNA 0.026 μg/mL, Spy Cas9 + Compound 4
  Mean TRAC Editing %: 48.55%
T cells [3]; sgRNA 0.052 μg/mL, Spy Cas9 + Compound 4
  Mean TRAC Editing %: 63.45%
T cells [3]; sgRNA 0.104 μg/mL, Spy Cas9 + Compound 4
  Mean TRAC Editing %: 79.25%
T cells [3]; sgRNA 0.209 μg/mL, Spy Cas9 + Compound 4
  Mean TRAC Editing %: 89.00%
T cells [3]; sgRNA 0.418 μg/mL, Spy Cas9 + Compound 4
  Mean TRAC Editing %: 94.45%
T cells [3]; sgRNA 0.835 μg/mL, Spy Cas9 + Compound 4
  Mean TRAC Editing %: 96.15%
T cells [3]; sgRNA 1.67 μg/mL, Spy Cas9 + Compound 4 (2 μM stock, 25 μL added)
  Mean TRAC Editing %: 96.10%
T cells [4]; compound 0.0625 uM
  Mean % CD3^−/GFP+ Cells (n = 3): 58.13%
T cells [4]; compound 1 uM
  Mean % CD3^−/GFP+ Cells (n = 3): 80.07%
NK cells [5]; DNA-PKI 0.125 uM
  Percent of NK cells with high GFP expression (Mean): 88.10%
NK cells [5]; DNA-PKI 0.5 uM
  Percent of NK cells with high GFP expression (Mean): 90.27%
